Data reported in patent US20250326741A1, “GLUCOSE-DEPENDENT INSULINOTROPIC POLYPEPTIDE RECEPTOR ANTAGONISTS AND USES THEREOF” (Pfizer Inc., priority 2024, published 2025).

Biological target: T1, human Glucose-dependent Insulinotropic Polypeptide Receptor (hGIPR) (Homo sapiens, UniProt P48546)
T1 sequence (P48546 22-466): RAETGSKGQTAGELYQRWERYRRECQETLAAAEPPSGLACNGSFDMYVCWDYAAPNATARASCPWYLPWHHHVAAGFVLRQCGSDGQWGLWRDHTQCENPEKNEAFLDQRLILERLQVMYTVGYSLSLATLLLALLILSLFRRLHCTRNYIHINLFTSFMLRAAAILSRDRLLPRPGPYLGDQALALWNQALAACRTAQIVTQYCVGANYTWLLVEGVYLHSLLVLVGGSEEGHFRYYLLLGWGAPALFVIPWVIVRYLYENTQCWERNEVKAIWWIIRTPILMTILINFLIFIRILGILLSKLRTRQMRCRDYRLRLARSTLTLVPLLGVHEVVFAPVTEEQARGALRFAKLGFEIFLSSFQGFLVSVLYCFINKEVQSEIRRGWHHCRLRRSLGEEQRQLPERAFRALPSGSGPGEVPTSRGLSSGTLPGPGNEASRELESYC
Test: Functional in vitro GIPR antagonist potency assay (intracellular cAMP, HTRF, hGIP stimulation at EC80)
Assay type: cell-based
Conditions: geometric mean; CHO-K1 cells stably expressing human GIPR, cAMP after hGIP stimulation at EC80
Experimental: Example AA. Functional In Vitro GIPR Antagonist Potency Assay
The functional in vitro antagonist potency for test compounds was determined by monitoring intracellular cyclic adenosine monophosphate (cAMP) levels in Chinese hamster ovary (CHO)—K1 cells stably expressing the human Glucose-dependent Insulinotropic Polypeptide Receptor (hGIPR). Following agonist activation, hGIPR associates with the G-protein complex causing the Gas subunit to exchange bound guanosine diphosphate (GDP) for guanosine triphosphate (GTP), followed by dissociation of the Gas-GTP complex. The activated Gas subunit can couple to downstream effectors to regulate the levels of second messengers or cAMP within the cell. Thereby, determination of intracellular cAMP levels allows for pharmacological characterization. Intracellular cAMP levels are quantitated using a homogenous assay utilizing the Homogeneous Time Resolved Fluorescence (HTRF) technology from Perkin Elmer. The method is a competitive immunoassay between native cAMP produced by the cells and cAMP labelled with the acceptor dye, d2. The two entities compete for binding to a monoclonal anti-cAMP antibody labeled with cryptate. The specific signal is inversely proportional to the concentration of cAMP in the cells.
Test compounds were solubilized to a concentration of 30 mM in 100% dimethyl sulfoxide (DMSO). An 11-point dilution series using 1 in 3.162-fold serial dilutions was created in 100% DMSO with a top concentration of 8 mM. The serially diluted compound was spotted with an Echo Acoustic liquid handler (Beckman Coulter) into a 384-well assay plate (Corning, Cat No. 3824) at 50 nL/well with duplicate points at each concentration, at a 200× final assay concentration (FAC). The final compound concentration range in the assay was 40 μM to […], with a final DMSO concentration of 0.5%.
Frozen assay-ready vials (at 1×10^7 cells/vial) of CHO-K1 cells stably expressing the Gs-coupled human GIPR receptor (Eurofins, DiscoverX, Cat No. 95-0146C2) were thawed, counted, and resuspended in assay buffer consisting of Hank's Balanced Salt Solution (HBSS, Lonza Cat No. 10-527) containing 20 mM (4-(2-hydroxyethyl)-1-piperazineethanesulfonic acid (HEPES, Lonza, Cat No. 17-737E), 0.1% bovine serum albumin (BSA, Sigma, Cat No. A7979), and 200 μM 3-isobutyl-1-methylxanthine (IBMX, Sigma, Cat No. 15879) at a density of 4×10^5 cells/mL. Cells were added to assay plate (5 μL/well of 4×10^5 cells/mL stock for 2,000 cells/well final) containing 50 nL of 200×FAC test compound, and incubated at 37° C. (95% O2: 5% CO2) for 2 hours, with micro-clime lids (Labcyte, Cat No. LLS-0310). Following the 2-hour cell and compound incubation, a stimulation mix comprised of hGIPR agonist human glucose-dependent insulinotropic polypeptide (hGIP, full length, Sigma Cat No. G2269) in assay buffer/0.1% DMSO was added to the assay plate (5 μL/well) at an estimated EC80 FAC (based on previous hGIP agonist curves) and incubated for another 30 minutes with micro-clime lids at 37° C. (95% O2: 5% CO2), after which intracellular cAMP levels were quantified as per Perkin Elmer's protocol (5 μL of d2 and then 5 μL cryptate, incubated for 1 hour at room temperature). Emission spectra of samples were measured on a Pherastar plate reader (BMG Labtech Inc) using a HTRF protocol (excitation, 320 nm; emission, 665 nm/620 nm).
(95% O2: 5% CO2), with a micro-clime lid. Following the 2-hour cell and DMSO incubation, a hGIP concentration response curve at 2×FAC (12-point curve using 1 in 3 serial dilutions, with triplicate points at each concentration, 100 nM final top concentration) in assay buffer/1% DMSO was added (5 μL/well) and incubated for a further 30 minutes with a micro-clime lid at 37° C. (95% O2: 5% CO2), after which intracellular cAMP levels were quantified and samples measured as described previously. Experiments passed quality control if the agonist concentration used for stimulation fell between the on-the-day EC50-EC90. […]

Row | IC50 [nM] | SMILES
1 | 28 | Cc1cc(-n2ccc(NC(=O)[C@H]3CCCN3C(=O)Nc3ccc(C(F)(F)F)c(C)c3)n2)ccc1C(=O)O [Example 38, 2-methyl-4-{3-[(1-{[3-methyl-4-(trifluoromethyl)phenyl]carbamoyl}-D-prolyl)amino]-1H-pyrazol-1-yl}benzoic acid]
2 | 7.6 | Cc1c(C(=O)O)ccc(-n2ccc(NC(=O)[C@H]3CCCN3C(=O)Nc3ccc(OC(F)(F)F)cc3)n2)c1F [Example 62, 3-fluoro-2-methyl-4-{3-[(1-{[4-(trifluoromethoxy)phenyl]carbamoyl}-D-prolyl)amino]-1H-pyrazol-1-yl}benzoic acid]
3 | 42 | CC(C)c1ccc(NC(=O)N2CCC[C@@H]2C(=O)Nc2ccn(-c3ccc(C(N)=O)cc3F)n2)cc1 [Example 36]
4 | 4.1 | Cc1cc(-n2ccc(NC(=O)[C@H]3CCCN3C(=O)Nc3ccc(C(C)C)c(C)c3)n2)ccc1C(=O)O [Example 6, 2-Methyl-4-{3-[(1-{[3-methyl-4-(propan-2-yl)phenyl]carbamoyl}-D-prolyl)amino]-1H-pyrazol-1-yl}benzoic Acid]
5 | 250 | Cc1cc(-n2ccc(NC(=O)[C@H]3CCCN3C(=O)CCc3ccc(C(F)(F)F)cc3)n2)ccc1C(=O)O [Example 18, 2-Methyl-4-{3-[(1-{3-[4-(trifluoromethyl)phenyl]propanoyl}-D-prolyl)amino]-1H-pyrazol-1-yl}benzoic Acid]
6 | 41 | Cc1cc(-n2ccc(NC(=O)[C@H]3CCCN3C(=O)Nc3ccc(C(C)C)c(C)c3)n2)ccc1C(N)=O [Example 15, (2R)—N^2-[1-(4-Carbamoyl-3-methylphenyl)-1H-pyrazol-3-yl]-N^1-[3-methyl-4-(propan-2-yl)phenyl]pyrrolidine-1,2-dicarboxamide]
7 | 22 | CC(C)c1ccc(NC(=O)N2CCC[C@@H]2C(=O)Nc2ccn(-c3ccc(C(=O)O)cc3)n2)cc1 [Example 22, 4-{3-[(1-{[4-(propan-2-yl)phenyl]carbamoyl}-D-prolyl)amino]-1H-pyrazol-1-yl}benzoic acid]
8 | 98 | Cc1cc(C(=O)O)ccc1-n1ccc(NC(=O)[C@H]2CCCN2C(=O)Nc2ccc(C(C)C)cc2)n1 [Example 25, 3-methyl-4-{3-[(1-{[4-(propan-2-yl)phenyl]carbamoyl}-D-prolyl)amino]-1H-pyrazol-1-yl}benzoic acid]
9 | 40 | Cc1c(C(=O)O)ccc(-n2ccc(NC(=O)[C@H]3CCCN3C(=O)COc3ccc(OC(F)(F)F)cc3)n2)c1F [Example 65, 3-fluoro-2-methyl-4-{3-[(1-{[4-(trifluoromethoxy)phenoxy]acetyl}-D-prolyl)amino]-1H-pyrazol-1-yl}benzoic acid]
10 | 94 | Cc1cc(-n2ccc(NC(=O)[C@H]3CCCN3C(=O)Nc3ccc(Cl)c(Cl)c3)n2)ccc1C(=O)O [Example 37, 4-[3-({1-[(3,4-dichlorophenyl)carbamoyl]-D-prolyl}amino)-1H-pyrazol-1-yl]-2-methylbenzoic acid]
11 | 13 | Cc1cc(-n2ccc(NC(=O)[C@H]3CCCN3C(=O)Nc3ccc(C(C)C)cc3)n2)ccc1C(=O)O [Example 29, 2-methyl-4-{3-[(1-{[4-(propan-2-yl)phenyl]carbamoyl}-D-prolyl)amino]-1H-pyrazol-1-yl}benzoic acid]
12 | 34 | CC(C)c1ccc(NC(=O)N2CCC[C@@H]2C(=O)Nc2ccn(-c3ccc(O)cc3F)n2)cc1 [Example 44]
13 | 75 | Cc1cc(-n2ccc(NC(=O)[C@H]3CCCN3C(=O)Nc3ccc(Cl)c(C(F)(F)F)c3)n2)ccc1C(=O)O [Example 46, 4-{3-[(1-{[4-chloro-3-(trifluoromethyl)phenyl]carbamoyl}-D-prolyl)amino]-1H-pyrazol-1-yl}-2-methylbenzoic acid]
14 | 98 | Cc1cc(-n2ccc(NC(=O)[C@H]3CCCN3C(=O)Nc3ccc(OC(F)(F)F)cc3)n2)ccc1C(N)=O [Example 41]
